Data published in the supplement of paper PMC8671470.
± gives the standard deviation of the averaged measurements.

Test system: HL-60
Assay: cell viability (% survival relative to DMSO control); higher = less cytotoxic
Conditions: 1 µM; 72 h; co-treatment: GSK2194069 100 nM
How it was run: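 In 384-well plates, the full library was rescreened in duplicate on HL-60 cells in RPMI 1640 with 10% FBS, at 1–10,000 nM in five tenfold concentrations, for 72 h at 37 °C, 5% CO2. Each run also held DMSO or 100 nM of one of three metabolic inhibitors. Viability was measured by CellTiter-Glo and normalised to DMSO wells and to wells with proteasome inhibitor, present at 10 μM. Any area under the curve comes from four-parameter log-logistic fitting with drc and PharmacoGx.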

Row | Structure (SMILES) | cell viability
1 | O=C1N[C@@H]2[C@@H](O)[C@@H](O)[C@H](O)[C@@H](CO)N2C1=O [Kifunensine] | 91.23 ± 0.73%
2 | CC(C)(CCCCCCCCCCC(C)(C)CC(=O)O)CC(=O)O [MEDICA 16] | 102 ± 2.8%
3 | Cc1nnc(-c2ccc(N3CCC(Oc4ccccc4C(F)(F)F)CC3)nn2)s1 [MF-438] | 101 ± 3.9%
4 | CC(C)c1ccc2c(c1)c(SC(C)(C)C)c(CC(C)(C)C(=O)O)n2Cc1ccc(Cl)cc1 [MK-886] | 97.5 ± 1.7%
5 | O=C(CCl)N(CCCNC(=O)C(F)(F)F)c1ccc([N+](=O)[O-])cc1 [ML175] | 95.2 ± 5.3%
6 | CN(C)C(=N)NC(=N)N [Metformin] | 94 ± 3.7%
7 | Cl.OC[C@H]1NC[C@H](O)[C@@H](O)[C@H]1O [Migalastat] | 103 ± 8.2%
8 | OCCN1C[C@H](O)[C@@H](O)[C@H](O)[C@H]1CO [Miglitol] | 97.8 ± 7.8%
9 | CCCCCCCCCCCCC/C=C/[C@@H](O)[C@H](CO)N(C)C [N,N-Dimethylsphingosine] | 97.23 ± 0.41%
10 | CCCCCCCNC=O [N-Heptyl-Formamide] | 97.7 ± 8.2%

Same assay, conditions: 1 µM; 72 h; co-treatment: pictilisib 100 nM

Row | Structure (SMILES) | cell viability
11 | O=C(Oc1ccc([N+](=O)[O-])cc1)N1CCC(C(O)(c2ccc3c(c2)OCO3)c2ccc3c(c2)OCO3)CC1 [JZL184] | 95.5 ± 2.7%
12 | O=C1N[C@@H]2[C@@H](O)[C@@H](O)[C@H](O)[C@@H](CO)N2C1=O [Kifunensine] | 104 ± 2.7%
13 | CC(C)(CCCCCCCCCCC(C)(C)CC(=O)O)CC(=O)O [MEDICA 16] | 90 ± 2.5%
14 | Cc1nnc(-c2ccc(N3CCC(Oc4ccccc4C(F)(F)F)CC3)nn2)s1 [MF-438] | 94.07 ± 0.88%
15 | CC(C)c1ccc2c(c1)c(SC(C)(C)C)c(CC(C)(C)C(=O)O)n2Cc1ccc(Cl)cc1 [MK-886] | 98.9 ± 5.2%
16 | O=C(CCl)N(CCCNC(=O)C(F)(F)F)c1ccc([N+](=O)[O-])cc1 [ML175] | 95.1 ± 3.8%
17 | CN(C)C(=N)NC(=N)N [Metformin] | 96.7 ± 6.3%
18 | Cl.OC[C@H]1NC[C@H](O)[C@@H](O)[C@H]1O [Migalastat] | 106 ± 5.2%
19 | OCCN1C[C@H](O)[C@@H](O)[C@H](O)[C@H]1CO [Miglitol] | 98.1 ± 6.2%
20 | CCCCCCCCCCCCC/C=C/[C@@H](O)[C@H](CO)N(C)C [N,N-Dimethylsphingosine] | 96.1 ± 2.2%
21 | CCCCCCCNC=O [N-Heptyl-Formamide] | 102 ± 4.4%

Same assay, conditions: 10 µM; 72 h; co-treatment: AZD3965 100 nM

Row | Structure (SMILES) | cell viability
22 | O=C(Oc1ccc([N+](=O)[O-])cc1)N1CCC(C(O)(c2ccc3c(c2)OCO3)c2ccc3c(c2)OCO3)CC1 [JZL184] | 105.1 ± 0.87%
23 | O=C1N[C@@H]2[C@@H](O)[C@@H](O)[C@H](O)[C@@H](CO)N2C1=O [Kifunensine] | 108 ± 4.8%
24 | CC(C)(CCCCCCCCCCC(C)(C)CC(=O)O)CC(=O)O [MEDICA 16] | 99.5 ± 3.1%
25 | Cc1nnc(-c2ccc(N3CCC(Oc4ccccc4C(F)(F)F)CC3)nn2)s1 [MF-438] | 89.8 ± 4.6%
26 | CC(C)c1ccc2c(c1)c(SC(C)(C)C)c(CC(C)(C)C(=O)O)n2Cc1ccc(Cl)cc1 [MK-886] | 102 ± 3.9%
27 | O=C(CCl)N(CCCNC(=O)C(F)(F)F)c1ccc([N+](=O)[O-])cc1 [ML175] | 0.129 ± 0.42%
28 | CN(C)C(=N)NC(=N)N [Metformin] | 100 ± 2.3%
29 | Cl.OC[C@H]1NC[C@H](O)[C@@H](O)[C@H]1O [Migalastat] | 102 ± 6.1%
30 | OCCN1C[C@H](O)[C@@H](O)[C@H](O)[C@H]1CO [Miglitol] | 100.28 ± 0.095%
31 | CCCCCCCCCCCCC/C=C/[C@@H](O)[C@H](CO)N(C)C [N,N-Dimethylsphingosine] | -1.76 ± 1.1%
32 | CCCCCCCNC=O [N-Heptyl-Formamide] | 97.3 ± 4.2%

Same assay, conditions: 10 µM; 72 h; co-treatment: DMSO vehicle

Row | Structure (SMILES) | cell viability
33 | O=C(Oc1ccc([N+](=O)[O-])cc1)N1CCC(C(O)(c2ccc3c(c2)OCO3)c2ccc3c(c2)OCO3)CC1 [JZL184] | 97.3 ± 2.7%
34 | O=C1N[C@@H]2[C@@H](O)[C@@H](O)[C@H](O)[C@@H](CO)N2C1=O [Kifunensine] | 108 ± 1.7%
35 | CC(C)(CCCCCCCCCCC(C)(C)CC(=O)O)CC(=O)O [MEDICA 16] | 98 ± 1.4%
36 | Cc1nnc(-c2ccc(N3CCC(Oc4ccccc4C(F)(F)F)CC3)nn2)s1 [MF-438] | 94.9 ± 1.6%
37 | CC(C)c1ccc2c(c1)c(SC(C)(C)C)c(CC(C)(C)C(=O)O)n2Cc1ccc(Cl)cc1 [MK-886] | 109.9 ± 1%
38 | O=C(CCl)N(CCCNC(=O)C(F)(F)F)c1ccc([N+](=O)[O-])cc1 [ML175] | -1.45 ± 0.48%
39 | CN(C)C(=N)NC(=N)N [Metformin] | 96.73 ± 0.68%
40 | Cl.OC[C@H]1NC[C@H](O)[C@@H](O)[C@H]1O [Migalastat] | 95.4 ± 4.5%
41 | OCCN1C[C@H](O)[C@@H](O)[C@H](O)[C@H]1CO [Miglitol] | 99.54 ± 0.43%
42 | CCCCCCCCCCCCC/C=C/[C@@H](O)[C@H](CO)N(C)C [N,N-Dimethylsphingosine] | 54.1 ± 66%
43 | CCCCCCCNC=O [N-Heptyl-Formamide] | 101 ± 2.9%

Same assay, conditions: 10 µM; 72 h; co-treatment: GSK2194069 100 nM

Row | Structure (SMILES) | cell viability
44 | O=C(Oc1ccc([N+](=O)[O-])cc1)N1CCC(C(O)(c2ccc3c(c2)OCO3)c2ccc3c(c2)OCO3)CC1 [JZL184] | 107 ± 13%
45 | O=C1N[C@@H]2[C@@H](O)[C@@H](O)[C@H](O)[C@@H](CO)N2C1=O [Kifunensine] | 91.9 ± 9.2%
46 | CC(C)(CCCCCCCCCCC(C)(C)CC(=O)O)CC(=O)O [MEDICA 16] | 93.201 ± 0.073%
47 | Cc1nnc(-c2ccc(N3CCC(Oc4ccccc4C(F)(F)F)CC3)nn2)s1 [MF-438] | 86.5 ± 1.9%
48 | CC(C)c1ccc2c(c1)c(SC(C)(C)C)c(CC(C)(C)C(=O)O)n2Cc1ccc(Cl)cc1 [MK-886] | 94.4 ± 7.3%
49 | O=C(CCl)N(CCCNC(=O)C(F)(F)F)c1ccc([N+](=O)[O-])cc1 [ML175] | -1.73 ± 0.33%
50 | CN(C)C(=N)NC(=N)N [Metformin] | 106 ± 8.9%
51 | Cl.OC[C@H]1NC[C@H](O)[C@@H](O)[C@H]1O [Migalastat] | 94.79 ± 0.12%
52 | OCCN1C[C@H](O)[C@@H](O)[C@H](O)[C@H]1CO [Miglitol] | 109 ± 7.6%
53 | CCCCCCCCCCCCC/C=C/[C@@H](O)[C@H](CO)N(C)C [N,N-Dimethylsphingosine] | 86.6 ± 7.7%
54 | CCCCCCCNC=O [N-Heptyl-Formamide] | 94 ± 2.8%

Same assay, conditions: 10 µM; 72 h; co-treatment: pictilisib 100 nM

Row | Structure (SMILES) | cell viability
55 | O=C(Oc1ccc([N+](=O)[O-])cc1)N1CCC(C(O)(c2ccc3c(c2)OCO3)c2ccc3c(c2)OCO3)CC1 [JZL184] | 99 ± 11%
56 | O=C1N[C@@H]2[C@@H](O)[C@@H](O)[C@H](O)[C@@H](CO)N2C1=O [Kifunensine] | 111.3 ± 0.3%
57 | CC(C)(CCCCCCCCCCC(C)(C)CC(=O)O)CC(=O)O [MEDICA 16] | 99.96 ± 0.98%
58 | Cc1nnc(-c2ccc(N3CCC(Oc4ccccc4C(F)(F)F)CC3)nn2)s1 [MF-438] | 98.1 ± 7.1%
59 | CC(C)c1ccc2c(c1)c(SC(C)(C)C)c(CC(C)(C)C(=O)O)n2Cc1ccc(Cl)cc1 [MK-886] | 108 ± 2.2%
60 | O=C(CCl)N(CCCNC(=O)C(F)(F)F)c1ccc([N+](=O)[O-])cc1 [ML175] | 1.1 ± 1.7%
61 | CN(C)C(=N)NC(=N)N [Metformin] | 104 ± 14%
62 | Cl.OC[C@H]1NC[C@H](O)[C@@H](O)[C@H]1O [Migalastat] | 94.1 ± 11%
63 | OCCN1C[C@H](O)[C@@H](O)[C@H](O)[C@H]1CO [Miglitol] | 106 ± 1.8%
64 | CCCCCCCCCCCCC/C=C/[C@@H](O)[C@H](CO)N(C)C [N,N-Dimethylsphingosine] | 62.7 ± 10%
65 | CCCCCCCNC=O [N-Heptyl-Formamide] | 100 ± 6.2%
